Results taken from patent US11712438B2, “Phenyl derivatives as PGE2 receptor modulators” (IDORSIA PHARMACEUTICALS LTD, priority 2017, dated 2023).

Tests used:
Assay in all cases: cell-based
[1] = target: PTGER2 (EP2) (Homo sapiens, UniProt P43116)
Source text: (§1) The assay is using the PathHunter™ HEK 293 PTGER2 and PTGER4 b-arrestin cell lines from DiscoverX. The system is based on the Enzyme Fragment Complementation Technology. Two complementing fragments of the b-galactosidase enzyme are expressed within stably transfected cells. The larger portion of b-gal, termed EA for Enzyme Acceptor, is fused to the C-terminus of b-arrestin 2. The smaller fragment, termed ProLink™ tag, is fused to PTGER2 (EP2) or PTRGER4 (EP4) at the C-terminus. Upon activation, b-arrestin is recruited which forces the interaction of ProLink and EA, allowing complementation of the two fragments of b-gal and the formation of a functional enzyme which is capable of hydrolysing the substrate and generating a chemiluminescent signal.
The HEK 293 PTGER2 b-arrestin cells (DiscoverX 93-021-4C1) are detached from culture dishes with a cell dissociation buffer (Invitrogen, 13151-014), and collected in growing medium (GM: DMEM+Glutamax-I (Invitrogen 32430)/10% FCS, 1% Penicilin/streptomycin). 5000 cells per well of a 384 well plate (white with white bottom Greiner 781080) are seeded in 20 ul per well of GM. Plate is incubated at 37° C., 5% CO2 for 24 hours.
(§2) Stock solutions of test compounds are made at a concentration of 10 mM in DMSO, and serially diluted in DMSO to concentrations required for inhibition dose response curves (tested concentration range 10 μM-2 nM or 1 μM-0.2 nM).
PGE2 (Cayman 14010, stock solution: 10 mM in DMSO) is used as agonist at 5 μM final concentration, corresponding to EC80.
Five microliters of diluted compounds are transferred into the assay plate. Plate is pre-incubated 15 minutes at 37° C. Then five microliters of PGE2 (final conc. 5 μM) are transferred into the assay plate. Plate is incubated 120 minutes at 37° C.
Twelve μl of reagent are transferred to the assay plate and incubate for 1 hour at room temperature in the dark. Luminescence counts are read on a BMG Fluostar Optima reader according to manufacturer's instructions.
(§3) For each compound concentration calculate of the percentage of activity compared to DMSO control value as average±STDEV. (each concentration is measured in duplicate)
(§4) When compounds were measured multiple times, mean values are given.

[2] = target: PTRGER4 (EP4) (Homo sapiens, UniProt P35408);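 further: assay plate preincubated 15 min at 37 °C, after which PGE2 was added at 20 nM final and incubation continued 120 min at 37 °C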
Source text: as §1
The HEK 293 PTGER4 b-arrestin cells (DiscoverX 93-030-4C1) are detached from culture dishes with a cell dissociation buffer (Invitrogen, 13151-014), and collected in growing medium (GM: DMEM+Glutamax-I (Invitrogen 32430)/10% FCS, 1% Penicilin/streptomycin). 5000 cells per well of a 384 well plate (white with white bottom Greiner 781080) are seeded in 20 ul per well of GM. Plate is incubated at 37° C., 5% CO2 for 24 hours.
as §2
PGE2 (Cayman 14010, stock solution: 100 uM in DMSO) is used as agonist at 20 nM final concentration, corresponding to EC80.
Five microliters of diluted compounds are transferred into the assay plate. Plate is pre-incubated 15 minutes at 37° C. Then five microliters of PGE2 (final conc. 20 nM) are transferred into the assay plate. Plate is incubated 120 minutes at 37° C.
Twelve μl of reagent are transferred to the assay plate and incubate for 1 hour at room temperature in the dark. Luminescence counts are read on a BMG Fluostar Optima reader according to manufacturers instructions.
as §3, §4

[3] = target: EP2 (Homo sapiens, UniProt P43116);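 further: SF295 glioblastoma cells with endogenous EP2 only, PGE2-stimulated cAMP accumulation read by HTRF competitive immunoassay, 45 min pre-incubation then 30 min at room temperature, IBMX in buffer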
[4] = target: EP4 (Homo sapiens, UniProt P35408);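 further: inhibition of PGE2-evoked (6 nM) cAMP accumulation in BT549 breast cancer cells endogenously expressing EP4, cAMP read by HTRF competitive immunoassay after 30 min at room temperature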
EP4, sequence (P35408 whole entry): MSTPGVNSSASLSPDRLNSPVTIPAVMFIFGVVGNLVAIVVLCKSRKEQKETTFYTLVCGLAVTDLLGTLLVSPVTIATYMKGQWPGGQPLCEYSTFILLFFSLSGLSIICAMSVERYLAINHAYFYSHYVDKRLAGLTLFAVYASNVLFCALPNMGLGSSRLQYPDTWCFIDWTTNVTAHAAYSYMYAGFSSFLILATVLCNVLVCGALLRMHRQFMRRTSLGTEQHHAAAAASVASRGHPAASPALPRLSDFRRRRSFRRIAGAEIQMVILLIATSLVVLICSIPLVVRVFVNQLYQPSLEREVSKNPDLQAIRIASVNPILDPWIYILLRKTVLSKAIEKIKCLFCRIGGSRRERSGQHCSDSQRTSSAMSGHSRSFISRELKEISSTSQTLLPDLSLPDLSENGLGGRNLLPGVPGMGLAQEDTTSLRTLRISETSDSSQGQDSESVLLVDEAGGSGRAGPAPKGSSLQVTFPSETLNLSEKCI
Source text: Human tumor cell lines expressing endogenously either EP4 or EP2 are used and cAMP accumulation in cells upon PGE2 stimulation is monitored.
As a detection method for cAMP the HTRF (homogeneous time resolved fluorescence) Cisbio kit (HTRF cAMP dynamic 2 kit 20′000 tests Cisbio Cat. #62AM4PEC) was used, which is based on a competitive immunoassay using a Cryptate-labeled anti-cAMP antibody and d2-labeled cAMP. Native cAMP produced by cells or unlabeled cAMP (for the standard curve) compete with exogenously added d2-labeled cAMP (acceptor) for binding to monoclonal anti-cAMP-Eu3+ Cryptate (donor). A FRET signal (Fluorescence Resonance Energy Transfer) is obtained only if the labeled anti-cAMP antibody binds the d2 labelled cAMP, thus the specific signal (i.e. energy transfer) is inversely proportional to the concentration of cAMP in the standard or sample.
The BT549 cells (NCI/No. 0507282) are detached from culture dishes with a cell dissociation buffer (Invitrogen, 13151-014), and collected in growing medium (GM: RPM11640 (Invitrogen 21875)/10% FCS, 1% Penicilin/streptomycin). Cells are counted washed and resuspended in assay buffer (AB; HBSS, 20 mM HEPES, 0.2% BSA; 2 mM IBMX). 4′000 cells in 5 μl of AB are seeded per well of a small volume 384 well plate (black with flat bottom, Greiner 784076).
Stock solutions of test compounds are made at a concentration of 10 mM in DMSO, and serially diluted in DMSO to concentrations required for inhibition dose response curves (tested concentration range 30 μM-0.4 nM; 30 μM-0.015 nM or 1 μM-0.01 nM).
PGE2 (Cayman 14010, stock solution: 6 μM in DMSO) is used as agonist at 6 nM final concentration, corresponding to EC80.
Two point five microliters of diluted compounds are transferred into the assay plate. Plate is pre-incubated 45 minutes at room temperature. Subsequently, 2.5 microliters of PGE2 (final conc. 6 nM) are transferred into the assay plate. Plate is incubated 30 minutes at room temperature.
For each compound concentration the percentage of cAMP compared to DMSO control value as average±STDEV (each concentration is measured in duplicate) is calculated.
as §4

PTRGER4 (EP4), sequence (P35408 whole entry): as above
PTGER2 (EP2), sequence (P43116 whole entry): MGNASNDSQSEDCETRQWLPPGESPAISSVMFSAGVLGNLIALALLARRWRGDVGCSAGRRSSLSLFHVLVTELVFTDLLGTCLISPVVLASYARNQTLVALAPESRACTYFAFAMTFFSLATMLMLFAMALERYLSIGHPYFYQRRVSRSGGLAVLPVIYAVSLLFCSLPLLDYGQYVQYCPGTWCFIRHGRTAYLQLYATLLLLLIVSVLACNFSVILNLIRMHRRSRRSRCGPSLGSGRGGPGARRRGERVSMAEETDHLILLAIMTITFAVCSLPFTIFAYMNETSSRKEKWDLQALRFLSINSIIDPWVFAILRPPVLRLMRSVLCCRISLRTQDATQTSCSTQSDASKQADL
EP2, sequence (P43116 whole entry): as above

| IC50 [1] | IC50 [2] | IC50 [3] | IC50 [4] | SMILES |
| --- | --- | --- | --- | --- |
| 44 nM | 16 nM | 51 nM | 12 nM | CCOc1cc(-c2cc(NCCc3ccc(Br)c(OC)c3)ncn2)sc1-c1noc(=O)[nH]1 [Example 115, 3-(5-{6-[2-(4-Bromo-3-methoxy-phenyl)-ethylamino]-pyrimidin-4-yl}-3-ethoxy-thiophen-2yl)-[1,2,4]oxadiazol-5(4H)-one] |
| 122 nM | 349 nM | 164 nM | 697 nM | CCCc1cc(-c2cc(NCCc3c(F)cc(Br)cc3F)ncn2)cc(F)c1C(=O)O [Example 39, 4-{6-[2-(4-Bromo-2,6-difluoro-phenyl)-ethylamino]-pyrimidin-4-yl}-2-fluoro-6-propyl-benzoic acid] |
| 58 nM | 42 nM | 165 nM | 101 nM | CCc1cc(-c2cc(NCCc3c(F)cc(Br)cc3F)ncn2)sc1CC(=O)O [Example 261, (5-{6-[2-(4-Bromo-2,6-difluoro-phenyl)-ethylamino]-pyrimidin-4-yl}-3-ethyl-thiophen-2yl)-acetic acid] |
| 77 nM | 49 nM | 93 nM | 23 nM | CCOc1cc(-c2cc(NCCc3c(F)cc(Br)cc3F)ncn2)ccc1-c1noc(=O)[nH]1 [Example 234, 3-(4-{6-[2-(4-Bromo-2,6-difluoro-phenyl)-ethylamino]-pyrimidin-4-yl}-2-ethoxy-phenyl)-[1,2,4]oxadiazol-5(4H)-one] |
| 55 nM | 61 nM | 169 nM | 27 nM | CCCc1cc(-c2cc(NCCc3c(F)cc(Br)cc3F)ncn2)sc1CC(=O)O [Example 314, (5-{6-[2-(4-Bromo-2,6-difluoro-phenyl)-ethylamino]-pyrimidin-4-yl}-3-propyl-thiophen-2-yl)-acetic acid] |
| 35 nM | 21 nM | 13 nM | 69 nM | CCOc1cc(-c2cc(NCCc3cc(Br)ccc3OC)ncn2)sc1-c1noc(=O)[nH]1 [Example 120, 3-(5-{6-[2-(5-Bromo-2-methoxy-phenyl)-ethylamino]-pyrimidin-4-yl}-3-ethoxy-thiophen-2yl)-[1,2,4]oxadiazol-5(4H)-one] |
| 240 nM | 402 nM | 86 nM | 65 nM | Cc1ccc(CCNc2cc(-c3cc(F)c(C(=O)O)s3)ncn2)cc1 [Example 1, 3-Fluoro-5-[6-(2-p-tolyl-ethylamino)-pyrimidin-4-yl]thiophene-2-carboxylic acid] |
| 36 nM | 380 nM | 151 nM | 1760 nM | O=C(O)c1[nH]c(-c2cc(NCCc3c(F)cc(Br)cc3F)ncn2)cc1C1CC1 [Example 271, 5-{6-[2-(4-Bromo-2,6-difluoro-phenyl)-ethylamino]-pyrimidin-4-yl}-3-cyclopropyl-1H-pyrrole-2-carboxylic acid] |
| 27 nM | 18 nM | 47 nM | 22 nM | CCOc1cc(-c2cc(NCCc3c(F)cc(Br)cc3F)ncn2)sc1-n1nn[nH]c1=O [Example 294, 1-(5-{6-[2-(4-Bromo-2,6-difluoro-phenyl)-ethylamino]-pyrimidin-4-yl}-3-ethoxy-thiophen-2-yl)-1,4-dihydro-tetrazol-5-one] |
| 75 nM | 45 nM | 80 nM | 69 nM | CCOc1cc(-c2cc(NCCc3ccc(OC)cc3CC)ncn2)sc1-c1noc(=O)[nH]1 [Example 99, 3-(3-Ethoxy-5-{6-[2-(2-ethyl-4-methoxy-phenyl)-ethylamino]-pyrimidin-4-yl}-thiophen-2-yl)-[1,2,4]oxadiazol-5(4H)-one] |
| 10 nM | 5 nM | 14 nM | 8 nM | CCOc1cc(-c2cc(NCCc3ccc(OC)cc3OC)ncn2)sc1-c1noc(=O)[nH]1 [Example 116, 3-(5-{6-[2-(2,4-Dimethoxy-phenyl)-ethylamino]-pyrimidin-4-yl}-3-ethoxy-thiophen-2-yl)-[1,2,4]oxadiazol-5(4H)-one] |
| 21 nM | 17 nM | 23 nM | 67 nM | CNc1cc(-c2cc(NCCc3c(F)cc(Br)cc3F)ncn2)ccc1C(N)=O [Example 216, 4-{6-[2-(4-Bromo-2,6-difluoro-phenyl)-ethylamino]-pyrimidin-4-yl}-2-methylamino-benzamide] |
| 235 nM | 113 nM | 400 nM | 107 nM | COc1cc(C(F)(F)F)c(Cl)cc1CCNc1cc(-c2ccc(C(=O)O)c(SC)c2)ncn1 [Example 196, 4-{6-[2-(5-Chloro-2-methoxy-4-trifluoromethyl-phenyl)-ethylamino]-pyrimidin-4-yl}-2-methylsulfanyl-benzoic acid] |
| 109 nM | 242 nM | 86 nM | 433 nM | CCCc1cc(-c2cc(NCCc3c(F)cc(Br)cc3F)ncn2)ccc1C(=O)O [Example 35, 4-{6-[2-(4-Bromo-2,6-difluoro-phenyl)-ethylamino]-pyrimidin-4-yl}-2-propyl-benzoic acid] |
| 49 nM | 80 nM | 41 nM | 41 nM | Cc1cc(-c2cc(NCCc3c(F)cc(Br)cc3F)ncn2)sc1C(=O)O [Example 28, 5-{6-[2-(4-Bromo-2,6-difluoro-phenyl)-ethylamino]-pyrimidin-4-yl}-3-methyl-thiophene-2-carboxylic acid] |
| 19 nM | 294 nM | 21 nM | 225 nM | CCOc1cc(-c2cc(NCCc3c(F)cc(Br)cc3F)ncn2)[nH]c1C(=O)O [Example 268, 5-{6-[2-(4-Bromo-2,6-difluoro-phenyl)-ethylamino]-pyrimidin-4-yl}-3-ethoxy-1H-pyrrole-2-carboxylic acid] |
| 29 nM | 14 nM | 129 nM | 47 nM | CCOc1cc(-c2cc(NCCc3ccc(Br)cc3C)ncn2)sc1-c1noc(=O)[nH]1 [Example 127, 3-(5-{6-[2-(4-Bromo-2-methyl-phenyl)-ethylamino]-pyrimidin-4-yl}-3-ethoxy-thiophen-2-yl)-[1,2,4]oxadiazol-5(4H)-one] |
| 441 nM | 759 nM | 205 nM | 140 nM | CCOc1cc(-c2cc(NCCc3cc(C)c(C)cc3OC)ncn2)ccc1C(=O)O [Example 7, 2-Ethoxy-4-{6-[2-(2-methoxy-4,5-dimethyl-phenyl)-ethylamino]-pyrimidin-4-yl}-benzoic acid] |
| 11 nM | 3 nM | 49 nM | 5 nM | CCOc1cc(-c2cc(NCCc3ccc(Br)cc3F)ncn2)sc1-c1noc(=O)[nH]1 [Example 125, 3-(5-{6-[2-(4-Bromo-2-fluoro-phenyl)-ethylamino]-pyrimidin-4-yl}-3-ethoxy-thiophen-2-yl)-[1,2,4]oxadiazol-5(4H)-one] |
| 54 nM | 136 nM | 30 nM | 35 nM | CCOc1cc(-c2cc(NCCc3ccc(OC)cc3OC)ncn2)sc1C(=O)O [Example 73, 5-{6-[2-(2,4-Dimethoxy-phenyl)-ethylamino]-pyrimidin-4-yl}-3-ethoxy-thiophene-2-carboxylic acid] |
| 135 nM | 83 nM | 1030 nM | 380 nM | CCOc1cc(-c2cc(NCCc3c(F)cc(Br)cc3F)ncn2)ccc1Cc1noc(=O)[nH]1 [Example 282, 3-(4-{6-[2-(4-Bromo-2,6-difluoro-phenyl)-ethylamino]-pyrimidin-4-yl}-2-ethoxy-benzyl)-[1,2,4]oxadiazol-5(4H)-one] |
| 44 nM | 62 nM | 120 nM | 38 nM | CCOc1cc(-c2cc(NCCc3c(F)cc(Br)cc3F)ncn2)sc1CCC(=O)O [Example 44, 3-(5-{6-[2-(4-Bromo-2,6-difluoro-phenyl)-ethylamino]-pyrimidin-4-yl}-3-ethoxy-thiophen-2yl)-propionic acid] |
| 111 nM | 136 nM | 102 nM | 53 nM | CCOc1cc(-c2cc(NCCc3ccc(Cl)cc3[N+](=O)[O-])ncn2)sc1C(=O)O [Example 65, 5-{6-[2-(4-Chloro-2-nitro-phenyl)-ethylamino]-pyrimidin-4-yl}-3-ethoxy-thiophene-2-carboxylic acid] |
| 23 nM | 37 nM | 59 nM | 72 nM | CNc1cc(-c2cc(NCCc3c(F)cc(Br)cc3F)ncn2)ccc1C(=O)NCCO [Example 276, 4-{6-[2-(4-Bromo-2,6-difluoro-phenyl)-ethylamino]-pyrimidin-4-yl}-N-(2-hydroxy-ethyl)-2-methylamino-benzamide] |
| 50 nM | 11 nM | 129 nM | 85 nM | CCOc1cc(-c2cc(NCCc3c(F)cc(Br)cc3F)ncn2)sc1/C=C/C(=O)O [Example 47, (E)-3-(5-{6-[2-(4-Bromo-2,6-difluoro-phenyl)-ethylamino]-pyrimidin-4-yl}-3-ethoxy-thiophen-2yl)-acrylic acid] |
| 26 nM | 50 nM | 62 nM | 93 nM | CCOc1cc(C(F)(F)F)ccc1CCNc1cc(-c2ccc(C(=O)O)c(SC)c2)ncn1 [Example 212, 4-{6-[2-(2-Ethoxy-4-trifluoromethyl-phenyl)-ethylamino]-pyrimidin-4-yl}-2-methylsulfanyl-benzoic acid] |

| SMILES | IC50 [1] | IC50 [2] | IC50 [3] | IC50 [4] |
| --- | --- | --- | --- | --- |
| COc1cc(C(F)F)c(F)cc1CCNc1cc(-c2ccc(C(=O)O)c(OC3CCC3)c2)ncn1 [Example 184, 2-Cyclobutoxy-4-{6-[2-(4-difluoromethyl-5-fluoro-2-methoxy-phenyl)-ethylamino]pyrimidin-4-yl}-benzoic acid] | 127 nM | 140 nM | 630 nM | 250 nM |
| O=C(O)c1ccc(-c2cc(NCCc3c(F)cc(Br)cc3F)ncn2)cc1OC1CCC1 [Example 42, 4-{6-[2-(4-Bromo-2,6-difluoro-phenyl)-ethylamino]-pyrimidin-4-yl}-2-cyclobutoxy-benzoic acid] | 59 nM | 241 nM | 50 nM | 297 nM |
